How the values were obtained:
duck salad = assay: Test B flood test duck salad; format: in vivo, Heteranthera limosa
How it was run: (§1)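 Plants were grown to the 2-leaf stage before treatment with test chemical, then held in a greenhouse for twelve to sixteen days. Injury was visually rated against untreated controls on a 0–10 scale, where 0 is no effect and 10 is complete control.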

purple nutsedge = assay: Test B pre/postemergence purple nutsedge; format: in vivo, Cyperus rotundus
How it was run: (§2)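 Test chemicals in a non-phytotoxic solvent mixture with surfactant were sprayed preemergence onto planted seeds and postemergence onto plants 2 to 18 cm tall (1- to 4-leaf stage). After twelve to sixteen days in a greenhouse, injury was visually rated against untreated controls from 0 (no effect) to 10 (complete control).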

corn = assay: Test B pre/postemergence corn; format: in vivo, Zea mays
How it was run: as §2

crabgrass = assay: Test B pre/postemergence crabgrass; format: in vivo, Digitaria sanguinalis
How it was run: as §2

pigweed = assay: Test B pre/postemergence pigweed; format: in vivo, Amaranthus retroflexus
How it was run: as §2

surinam grass = assay: Test B pre/postemergence surinam grass; format: in vivo, Brachiaria decumbens
How it was run: as §2

bamyardgrass = assay: Test B flood test barnyardgrass; format: in vivo, Echinochloa crus-galli
How it was run: as §1

rice = assay: Test B flood test rice; format: in vivo, Oryza sativa
How it was run: as §1

morningglory = assay: Test B pre/postemergence morningglory; format: in vivo, Ipomoea hederacea
How it was run: as §2

smallflower flatsedge = assay: Test B flood test smallflower flatsedge; format: in vivo, Cyperus difformis
How it was run: as §1

cocklebur = assay: Test B pre/postemergence cocklebur; format: in vivo, Xanthium strumarium
How it was run: as §2

wheat = assay: Test B pre/postemergence wheat; format: in vivo, Triticum aestivum
How it was run: as §2

giant foxtail = assay: Test B pre/postemergence giant foxtail; format: in vivo, Setaria faberii
How it was run: as §2

sugar beet = assay: Test B pre/postemergence sugar beet; format: in vivo, Beta vulgaris
How it was run: as §2

wild oat = assay: Test B pre/postemergence wild oat; format: in vivo, Avena fatua
How it was run: as §2

rape = assay: Test B pre/postemergence rape; format: in vivo, Brassica napus
How it was run: as §2

[1] = Rate 62 g/ha, headed Pre-emergence (flood test species), scale 0 to 10 (0 no effect, 10 complete control)
[2] = Rate 125 g/ha, Pre-emergence, flood test species, scale 0 to 10 where 0 is no effect and 10 is complete control
[3] = Rate 250 g/ha, Pre-emergence, flood-test species, scale 0 to 10, 0 is no effect, 10 is complete control
[4] = Rate 500 g/ha, Pre-emergence, flood test species, scale 0 to 10 (0 no effect, 10 complete control)
[5] = Preemergence, Rate 250 g/ha, scale of 0 to 10 where 0 is no effect and 10 is complete control
[6] = Preemergence, Rate 500 g/ha, scale of 0 to 10 where 0 is no effect and 10 is complete control
[7] = Rate 500 g/ha, Postemergence, scale 0 to 10, 0 no effect, 10 complete control
[8] = Preemergence, Rate 62 g/ha, scale of 0 to 10 where 0 is no effect and 10 is complete control
[9] = Rate 62 g/ha, Postemergence, scale of 0 to 10 where 0 is no effect and 10 is complete control
[10] = Rate 125 g/ha, Postemergence, scale 0 to 10
[11] = Rate 125 g/ha, Preemergence, scale of 0 to 10 where 0 is no effect and 10 is complete control

`CC(C)N(C(=O)n1oc(=O)n(CC(C)(C)C)c1=O)c1ccc(F)cc1` [Compound 246] was tested, and the “Ducksalad plant response rating” value (duck salad; [1]) was 0, the “Ducksalad plant response rating” value (duck salad; [2]) was 0 and the “Ducksalad plant response rating” value (duck salad; [3]) was 0. For the same compound, the “Ducksalad plant response rating” value (duck salad; [4]) was 0, the “Nutsedge plant response rating” value (purple nutsedge; [5]) was 0 and the “Plant response rating, Nutsedge” value (purple nutsedge; [6]) was 0. The “Plant response rating (0 to 10; 0 is no effect, 10 is complete control), Nutsedge” value (purple nutsedge; Rate 250 g/ha, Postemergence) was 0, the “Nutsedge plant response rating” value (purple nutsedge; [7]) was 3 and the “Corn plant response rating” value (corn; [8]) was 0. The “Corn plant response rating” value (corn; [5]) was 0, the “Plant response rating, Corn” value (corn; [6]) was 3 and the “Corn plant response rating” value (corn; [9]) was 0. The “Corn plant response rating” value (corn; [10]) was 0, the “Corn plant response rating” value (corn; [11]) was 0 and the “Plant response rating (0 to 10; 0 is no effect, 10 is complete control), Corn” value (corn; Rate 250 g/ha, Postemergence) was 0. For the same compound, the “Corn plant response rating” value (corn; [7]) was 0, the “Crabgrass plant response rating” value (crabgrass; [8]) was 3 and the “Crabgrass plant response rating” value (crabgrass; [5]) was 10. The “Plant response rating, Crabgrass” value (crabgrass; [6]) was 10, the “Crabgrass plant response rating” value (crabgrass; [11]) was 3 and the “Plant response rating (0 to 10; 0 is no effect, 10 is complete control), Crabgrass” value (crabgrass; Rate 250 g/ha, Postemergence) was 0. For the same compound, the “Crabgrass plant response rating” value (crabgrass; [7]) was 3, the “Redroot pigweed plant response rating” value (pigweed; [8]) was 0 and the “Redroot pigweed plant response rating” value (pigweed; [5]) was 0. The “Plant response rating, Redroot pigweed” value (pigweed; [6]) was 3, the “Redroot pigweed plant response rating” value (pigweed; [11]) was 0 and the “Plant response rating (0 to 10; 0 is no effect, 10 is complete control), Redroot pigweed” value (pigweed; Rate 250 g/ha, Postemergence) was 2. The “Redroot pigweed plant response rating” value (pigweed; [7]) was 3, the “B. signalgrass plant response rating” value (surinam grass; [8]) was 0 and the “B. signalgrass plant response rating” value (surinam grass; [5]) was 3. The “Plant response rating, B. signalgrass” value (surinam grass; [6]) was 5, the “B. signalgrass plant response rating” value (surinam grass; [9]) was 0 and the “B. signalgrass plant response rating” value (surinam grass; Rate 125 g/ha, Postemergence, scale 0 (no effect) to 10 (complete control)) was 0. The “B. signalgrass plant response rating” value (surinam grass; [11]) was 2, the “Plant response rating (0 to 10; 0 is no effect, 10 is complete control), B. signalgrass” value (surinam grass; Rate 250 g/ha, Postemergence) was 0 and the “B. signalgrass plant response rating” value (surinam grass; [7]) was 1. For the same compound, the “Barnyardgrass plant response rating” value (bamyardgrass; [1]) was 0, the “Barnyardgrass plant response rating” value (bamyardgrass; [2]) was 0 and the “Barnyardgrass plant response rating” value (bamyardgrass; [3]) was 0. For the same compound, the “Barnyardgrass plant response rating” value (bamyardgrass; [4]) was 8, the “Rice plant response rating” value (rice; [1]) was 0 and the “Rice plant response rating” value (rice; [2]) was 0. For the same compound, the “Rice plant response rating” value (rice; [3]) was 0, the “Rice plant response rating” value (rice; [4]) was 0 and the “Morningglory plant response rating” value (morningglory; [8]) was 0. The “Morningglory plant response rating” value (morningglory; [5]) was 0, the “Plant response rating, Morningglory” value (morningglory; [6]) was 0 and the “Morningglory plant response rating” value (morningglory; [11]) was 0. The “Plant response rating (0 to 10; 0 is no effect, 10 is complete control), Morningglory” value (morningglory; Rate 250 g/ha, Postemergence) was 9, the “Morningglory plant response rating” value (morningglory; [7]) was 9 and the “S. Flatsedge plant response rating” value (smallflower flatsedge; [1]) was 0. For the same compound, the “S. Flatsedge plant response rating” value (smallflower flatsedge; [2]) was 0, the “S. Flatsedge plant response rating” value (smallflower flatsedge; [3]) was 0 and the “S. Flatsedge plant response rating” value (smallflower flatsedge; [4]) was 0. The “Cocklebur plant response rating” value (cocklebur; [8]) was 0, the “Cocklebur plant response rating” value (cocklebur; [5]) was 0 and the “Plant response rating, Cocklebur” value (cocklebur; [6]) was 0. The “Cocklebur plant response rating” value (cocklebur; [9]) was 0, the “Cocklebur plant response rating” value (cocklebur; [10]) was 0 and the “Cocklebur plant response rating” value (cocklebur; [11]) was 0. For the same compound, the “Plant response rating (0 to 10; 0 is no effect, 10 is complete control), Cocklebur” value (cocklebur; Rate 250 g/ha, Postemergence) was 1, the “Cocklebur plant response rating” value (cocklebur; [7]) was 2 and the “Wheat plant response rating” value (wheat; [8]) was 0. The “Wheat plant response rating” value (wheat; [5]) was 0, the “Plant response rating, Wheat” value (wheat; [6]) was 5 and the “Wheat plant response rating” value (wheat; [11]) was 0. For the same compound, the “Wheat plant response rating” value (wheat; [7]) was 4, the “Giant foxtail plant response rating” value (giant foxtail; [8]) was 8 and the “Giant foxtail plant response rating” value (giant foxtail; [5]) was 10. The “Plant response rating, Giant foxtail” value (giant foxtail; [6]) was 10, the “Giant foxtail plant response rating” value (giant foxtail; [11]) was 9 and the “Plant response rating (0 to 10; 0 is no effect, 10 is complete control), Giant foxtail” value (giant foxtail; Rate 250 g/ha, Postemergence) was 5. For the same compound, the “Giant foxtail plant response rating” value (giant foxtail; [7]) was 8, the “Sugarbeets plant response rating” value (sugar beet; [8]) was 0 and the “Sugarbeets plant response rating” value (sugar beet; [5]) was 2. For the same compound, the “Plant response rating, Sugarbeets” value (sugar beet; [6]) was 8, the “Sugarbeets plant response rating” value (sugar beet; [11]) was 1 and the “Sugarbeets plant response rating” value (sugar beet; [7]) was 0. The “Wild oats plant response rating” value (wild oat; [8]) was 2, the “Wild oats plant response rating” value (wild oat; [5]) was 6 and the “Plant response rating, Wild oats” value (wild oat; [6]) was 8. For the same compound, the “Wild oats plant response rating” value (wild oat; [11]) was 3, the “Wild oats plant response rating” value (wild oat; [7]) was 0 and the “Rape plant response rating” value (rape; [8]) was 0. The “Rape plant response rating” value (rape; [5]) was 10, the “Plant response rating, Rape” value (rape; [6]) was 10 and the “Rape plant response rating” value (rape; [11]) was 2. The “Plant response rating (0 to 10; 0 is no effect, 10 is complete control), Rape” value (rape; Rate 250 g/ha, Postemergence) was 0 and the “Rape plant response rating” value (rape; [7]) was 0.

From patent US6737383B1, “Herbicidal oxadiazolidines” (priority 1999, dated 2004)
